According to patent publication US20240270771A1, “Compound containing phosphate group, pharmaceutical composition containing same, preparation method therefor and use thereof” (SHANGHAI RAISING PHARMACEUTICAL CO., LTD., priority 2021, published 2024):

Assays:
Aβ40 = Aβ40 content in culture supernatant of HEK293APP/sw overexpressing cells (ELISA kit); assay type: cell-based; conditions: compound 400 μM, 24 hours, adjusted by total protein concentration, blank control 127.81
Protocol: BCA Protein Assay Kit was purchased from Beyotime, Aβ40 and Aβ42 detection kits were purchased from Wako, and cell culture related reagents were purchased from Gibco.
HEK293APP/sw overexpressing cells were cultured in DMEM medium containing 10% FBS, 100 μg/mL G418 (Geneticin) and 1×Penicillin-Streptomycin in 48-well plates. A 4 mM compound stock solution (prepared by dissolving the compound in DMEM culture medium) was filtered through a 0.22 μm sterile filter and stored at −20° C. for subsequent use. At 70% cell density, 40 μL of the compound test solution was added to each well to reach a final concentration of 400 μM, and the plate was incubated for 24 hours.
The supernatant of the culture medium was collected. The BCA reagent was added to a part of the supernatant, after incubating at room temperature for 30 min, the absorbance value (i.e., OD value) of each well was determined by a microplate reader at 570 nm. The total protein concentration was calculated according to a protein standard curve. Meanwhile, the other part of the supernatant (100 μL) was added to a coated 96-well plate and incubated overnight at 4° C., after the solution was removed and the reagents were washed, HRP (horseradish peroxidase)-labeled antibody was added and incubated at 4° C. for 2 hours. After the reagents were removed and washed, a TMB chromogenic solution was added, the plate was incubated at room temperature for 30 min, and then a stop solution was added to stop the reaction. The absorbance value (i.e., OD value) of each well was measured by a microplate reader at 450 nm. The concentrations of Aβ40 and Aβ42 were calculated according to the standard curves of Aβ40 and Aβ42, respectively. In the end, the concentrations of Aβ40 and Aβ42 were adjusted by the total protein concentration, so as to obtain the final concentration.

APP/PSi 2×Tg mice = assay: Water maze behavior test; assay type: in vivo; conditions: 200 mg/kg oral gavage once a day, 8 weeks; for The number of crossing the platform: test day 6, model group 0.9 ± 0.6; for Time in the target quadrant: test day 6, model group 12.8 ± 2.9, in s
From the text: Rodents in water have a strong incentive to escape from the water environment, and can escape from the water environment in the fastest and most direct way. The process of learning to escape from the water environment reflects the learning ability of the animals. Spatial positioning according to the surrounding environment and purposefully swimming to a safe place in the water (such as a platform) can reflect the spatial learning and memory ability of the animals.
The test animals were APP/PSi 2×Tg mice (C57BL/6 wild-type mice as the blank control). Mice of 6-8 months old, weighing 20-40 g, were purchased from The Jackson laboratory.
APP/PSi mice are APP/PSi di-transgenic Alzheimer's disease (2×Tg-AD) model mice, and the appearance of deposition of Aβ is earlier than the pathological changes of tau protein for several months, which can more truly simulate the clinical process and pathological changes of Alzheimer's disease.
Preparation of 0.7% CMC-Na: 0.7 g CMC-Na was added with a proper amount of water, heated for dissolution, left for cooling to room temperature, diluted to 100 mL, and stored at 4° C.
Preparation of BTMP: 100 mg of BTMP was added to 10 mL of 0.7% CMC-Na to prepare a 10 mg/mL suspension for use.
Preparation of test compound and comparative compound 1: 100 mg of the compound to be tested was weighted and added to 10 mL of 0.7% CMC-Na to prepare a 10 mg/mL suspension for use.
The laboratory mice were randomly divided into groups (9 or 10 mice per group). Mice in each group were administrated at a dosage of 0.2 mL/10 g body weight by oral gavage once a day for eight weeks.
The mice in the blank control group, model group and test group were orally administrated for 8 consecutive weeks according to the above administration dosage/specification. The water maze training and test were started in the last week of administration. The water maze training and test lasted for six days, with a training period of five days and a testing period of one day. In addition, during the training and testing period of water maze (6 days in total), the indoor conditions such as lighting etc. were kept consistent, the room was kept quiet, and the interference from the environment and personnel was excluded.
2.1. Preparation before the test: a proper amount of water was put into the water maze pool with the water temperature being kept at 22±3° C. The platform was placed in a fixed position (target quadrant) and 1 cm below the water surface, and titanium dioxide was added until the water became white, so that the platform could not be seen clearly.
2.2. Training period (days 1 to 5): on each day, before the first quadrant training, each mouse was placed on the platform for 15 s (to increase the mice's sense of security on the platform), and then the mouse was put into the pool (with its head facing the pool wall) from the quadrant where the platform located, and the swimming time was set as 60 s. If the mouse found the platform within 60 s and stayed for 5 s, it was regarded as the platform being found successfully. If the mouse could not find the platform, then the time was recorded as 60 s. The mouse was guided to the platform and stayed for 20 s, the mouse was then taken out, and the quadrant training for this mouse was ended.
After the first quadrant training, the mouse was trained in the remaining three quadrants sequentially, where it is not necessary to place the mouse on the platform for 15 s before training. The training of each mouse in every two quadrants was conducted at an interval of 10-15 minute. In this way, the training was performed continuously for 5 days.
2.3. Testing period (day 6): 24 hours after the last training, the platform was removed, and the mouse was dropped at the position opposite to the quadrant where the platform previously located (i.e., the position furthest away from the platform). […]

[1] = test day 6, model group 45.0 ± 8.8

| Structure (SMILES) | The content of Aβ40 (Aβ40) [pmol/L] | The number of crossing the platform (APP/PSi 2×Tg mice) | Time in the target quadrant (APP/PSi 2×Tg mice) | Latency period (APP/PSi 2×Tg mice; [1]) [s] | Latency period (APP/PSi 2×Tg mice; test day 6, model group 45.0 ± 8.8, 200 mg/kg) [s] | Latency period (APP/PSi 2×Tg mice; test day 6, model group 45.0 ± 8.8, listed as compound 1, 200 mg/kg) [s] |
| --- | --- | --- | --- | --- | --- | --- |
| C/C(=C(\CCOP(=O)(O)O)SC(=O)c1ccco1)N(C=O)Cc1cnc(C)nc1N [Compound 9, (Z)—S-(2-(N-((4-amino-2-methylpyrimidin-5-yl)methyl)formamido)-5-(phosphonooxy)pent-2-en-3-yl) furan-2-carbothioate] | 42.88 | 2.3 ± 0.5 | 18.6 ± 1.6 | 22.8 ± 1.3 | – | – |
| CCCC(CCC)C(=O)S/C(CCOP(=O)(O)O)=C(/C)N(C=O)Cc1cnc(C)nc1N [Compound 1, (Z)—S-(2-(N-((4-amino-2-methylpyrimidin-5-yl)methyl)formamido)-5-(phosphonooxy)pent-2-en-3-yl) 2-propylpentanethioate] | 41.18 | 2.4 ± 0.8 | 19.6 ± 3.4 | – | 22.0 ± 1.5 | 22.0 ± 1.5 |
| CCC(CC)C(=O)S/C(CCOP(=O)(O)O)=C(/C)N(C=O)Cc1cnc(C)nc1N [Compound 2, (Z)—S-(2-(N-((4-amino-2-methylpyrimidin-5-yl)methyl)formamido)-5-(phosphonooxy)pent-2-en-3-yl) 2-ethylbutanethioate] | 37.39 | 2.2 ± 0.6 | 18.8 ± 2.6 | 22.7 ± 1.1 | – | – |
